Measurements: US6936625B2 (Hanmi Pharm. Co., Ltd., priority 2001, dated 2005)
Values after ≈ are worked out from the molar mass of the structure shown. Read-outs that look alike come from different tables or passages of the source.

Experiments:
Quail = details: oral; cited from earlier work
Mouse = details: in vivo, sc; cited from earlier work
[1] = Solubility test (saturation in distilled water, liquid chromatography); type: physicochemical; details: for Solubility: distilled water to saturation, based on the amount of amlodipine
Procedure: The measurement was performed according to the procedure described in the Korean Pharmacopoeia (Korean Ministry of Health and Welfare, General principle of medical supplies, Vol. 1, Clause 29, the 7th revision) which comprises the steps of dissolving each compound in distilled water to saturation, analyzing the saturated solution with liquid chromatography, and measuring the dissolved amount of each compound based on the amount of amlodipine.

[2] = Stability test (storage at 55° C., about 50% relative humidity); type: physicochemical; parameters: remaining amount of active amlodipine: unit not given here; details: relative humidity about 50%; for time-dependent stability (in words): up to 4 weeks
Procedure: Specifically, each compound was stored at 55° C., a relative humidity of about 50%, and after 1, 2, 3 and 4 weeks, the remaining amount of active amlodipine was determined with a liquid chromatography.

[3] = Non-hygroscopicity test (moisture content); type: physicochemical; details: for moisture content, Condition 2: 30° C. under 95% relative humidity for 3 days; for moisture content, Condition 1: 37° C. under 75% relative humidity for 24 hours; for Initial moisture: before exposure
Procedure: When a solid form of a drug is to be formulated, it is important that the drug is not hygroscopic. Accordingly, the hygroscopicity of the inventive amlodipine camsylate was measured and compared with that of amlodipine besylate.
Each compound was exposed to two conditions: 37° C. under 75% relative humidity for 24 hours (condition 1) and 30° C. under 95% relative humidity for 3 days (condition 2), and then, the moisture content of each compound was measured according to the method described in Korean Patent Publication No. 1995-7228.

Rat = details: oral; cited from earlier work
Cat = details: cutaneous; cited from earlier work
Wild-birds = details: oral; cited from earlier work
[4] = in a solution; cited from earlier work

| Molecule | remaining amount of active amlodipine ([2]; 1 week) | remaining amount of active amlodipine ([2]; 2 weeks) | remaining amount of active amlodipine ([2]; 3 weeks) | remaining amount of active amlodipine ([2]; 4 weeks) | remaining amount of active amlodipine ([2]; Initial) | moisture content, Condition 2 [3] | moisture content, Condition 1 [3] | Initial moisture [3] | other results |
| --- | --- | --- | --- | --- | --- | --- | --- | --- | --- |
| CC1(C)C2CCC1(CS(=O)(=O)O)C(=O)C2 (racemic) [(±)-10-Camphor sulfonic aicd, (±)-10-camphor sulfonic acid] |  |  |  |  |  |  |  |  | LD50 (Quail): LD50 > 316 mg/kg |
| CC1(C)C2CC[C@@]1(CS(=O)(=O)O)C(=O)C2 [(1S)-(+)-10-Camphor sulfonic acid, (1S)-(+)-10-camphor sulfonic acid] |  |  |  |  |  |  |  |  | LD50 (Mouse): LD50 2502 mg/kg |
| CCOC(=O)C1=C(COCCN)NC(C)=C(C(=O)OC)C1c1ccccc1Cl (stereo not drawn) [Amlodipine besylate, amlodipine benzenesulfonate, reference compound] | 0.992 | 0.996 | 0.993 | 0.993 | 1 | 0.15% | 0.05% | 0.05% | Solubility ([1]; distilled water, water, thermodynamic from solid, read-out: Solubility): 1400 µg/mL; time-dependent stability (in words) [2]: slight but significant degradation after 1 week |
| CCOC(=O)C1=C(COCCN)NC(C)=C(C(=O)OC)C1c1ccccc1Cl [Amlodipine camsylate of Example 1 (S), Amlodipine Camsylate] | 1 | 0.998 | 1 | 1 | 1 | 0.15% | 0.05% | 0.05% | Solubility [1]: 1225 µg/mL (≈ 3 mM); Saturation pH ([1]; saturated solution in distilled water): 6.0 |
| CCOC(=O)C1=C(COCCN)NC(C)=C(C(=O)OC)C1c1ccccc1Cl [Amlodipine camsylate of Example 2 (R), Amlodipine Camsylate] | 1 | 1 | 1.002 | 1 | 1 | 0.15% | 0.05% | 0.05% | Solubility [1]: 1250 µg/mL (≈ 3.06 mM) |
| CCOC(=O)C1=C(COCCN)NC(C)=C(C(=O)OC)C1c1ccccc1Cl (stereo not drawn) [Amlodipine camsylate, amlodipine camsylate] |  |  |  |  |  |  |  |  | time-dependent stability (in words) [2]: stable during the 4 weeks period |
| O=S(=O)(O)c1ccccc1 [Benzene sulfonic acid] |  |  |  |  |  |  |  |  | LD50 (Rat): LD50 890 μl/kg; LDLO (Cat): LDLO 10 g/kg; LD50 (Wild-birds): LD50 75 mg/kg |
| amlodipine maleate |  |  |  |  |  |  |  |  | stability in solution (in words) [4]: degrades in a solution within several weeks |
